Assay [1] has as its target Tyrosine-protein kinase Lck (Homo sapiens, UniProt P06239). The assay is described as follows: DRUGMATRIX: Protein Tyrosine Kinase, LCK enzyme inhibition (substrate: Poly(Glu:Tyr)). The format is cell-based, Insect cells. The note with it: Not Active = under 50% inhibition at 10 µM.
The target in another assay is Mu-type opioid receptor (Homo sapiens, UniProt P35372). The assay is described as follows: DRUGMATRIX: Opiate mu (OP3, MOP) radioligand binding (ligand: [3H] Diprenorphine). The note with it: Not Active = under 50% inhibition at 10 µM. The assay is classed as cell membranes, CHO-K1, Membrane.
Assay [2] is described as follows: DRUGMATRIX: Glutamate, NMDA, Agonism radioligand binding (ligand: [3H] CGP-39653). The format is cell membranes, Rattus norvegicus, Wistar, Cerebral cortex, Membrane. To be noted: Not Active = under 50% inhibition at 10 µM.
The target of assay [3] is T1, Alpha-1B adrenergic receptor (Rattus norvegicus, UniProt P15823).
T1 sequence (P15823 whole entry): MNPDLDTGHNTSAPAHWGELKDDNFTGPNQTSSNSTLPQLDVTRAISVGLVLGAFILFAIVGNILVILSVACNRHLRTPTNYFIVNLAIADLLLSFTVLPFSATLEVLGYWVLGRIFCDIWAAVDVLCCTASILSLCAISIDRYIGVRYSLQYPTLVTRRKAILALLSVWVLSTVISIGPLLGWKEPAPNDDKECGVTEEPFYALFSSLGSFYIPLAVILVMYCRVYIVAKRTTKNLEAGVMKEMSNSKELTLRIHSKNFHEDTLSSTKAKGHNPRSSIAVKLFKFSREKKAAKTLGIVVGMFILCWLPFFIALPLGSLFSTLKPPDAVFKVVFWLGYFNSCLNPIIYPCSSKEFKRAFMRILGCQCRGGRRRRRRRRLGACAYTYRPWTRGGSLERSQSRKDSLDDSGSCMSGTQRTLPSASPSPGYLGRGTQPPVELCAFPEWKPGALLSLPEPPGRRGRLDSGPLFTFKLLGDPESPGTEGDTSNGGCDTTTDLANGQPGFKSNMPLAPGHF
The assay is described as follows: DRUGMATRIX: Alpha-1B adrenergic receptor radioligand binding (ligand: prazosin). The format is cell membranes, Wistar, Liver, Membrane. The note with it: Not Active = under 50% inhibition at 10 µM.

A further assay addresses T2, Endothelin-1 receptor (Homo sapiens, UniProt P25101).
T2 sequence (P25101 whole entry): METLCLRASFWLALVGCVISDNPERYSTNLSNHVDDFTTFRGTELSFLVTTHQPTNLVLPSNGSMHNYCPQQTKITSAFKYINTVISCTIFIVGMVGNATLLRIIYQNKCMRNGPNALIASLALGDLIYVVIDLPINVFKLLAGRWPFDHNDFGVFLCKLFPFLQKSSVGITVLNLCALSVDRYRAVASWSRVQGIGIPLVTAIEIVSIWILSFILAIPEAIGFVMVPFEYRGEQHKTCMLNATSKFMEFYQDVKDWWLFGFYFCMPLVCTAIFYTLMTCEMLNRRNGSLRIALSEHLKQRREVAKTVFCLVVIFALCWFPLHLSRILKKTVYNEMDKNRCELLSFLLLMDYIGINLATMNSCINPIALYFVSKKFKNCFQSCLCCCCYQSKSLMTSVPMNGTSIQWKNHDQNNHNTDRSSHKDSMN
The format is cell membranes, CHO-K1, Membrane. The note with it: cho-k1.

The next assay addresses T3, Neutrophil elastase (Homo sapiens, UniProt P08246).
T3 sequence (P08246 whole entry): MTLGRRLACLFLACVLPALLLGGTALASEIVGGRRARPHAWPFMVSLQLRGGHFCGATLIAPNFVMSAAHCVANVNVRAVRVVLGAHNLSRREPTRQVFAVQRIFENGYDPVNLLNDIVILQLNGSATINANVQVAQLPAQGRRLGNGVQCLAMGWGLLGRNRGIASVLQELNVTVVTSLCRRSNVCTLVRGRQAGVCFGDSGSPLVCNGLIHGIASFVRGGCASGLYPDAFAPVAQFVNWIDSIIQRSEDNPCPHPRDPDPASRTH
The format is tissue-based.

Chain of Tyrosine-protein kinase Lck (P06239 whole entry): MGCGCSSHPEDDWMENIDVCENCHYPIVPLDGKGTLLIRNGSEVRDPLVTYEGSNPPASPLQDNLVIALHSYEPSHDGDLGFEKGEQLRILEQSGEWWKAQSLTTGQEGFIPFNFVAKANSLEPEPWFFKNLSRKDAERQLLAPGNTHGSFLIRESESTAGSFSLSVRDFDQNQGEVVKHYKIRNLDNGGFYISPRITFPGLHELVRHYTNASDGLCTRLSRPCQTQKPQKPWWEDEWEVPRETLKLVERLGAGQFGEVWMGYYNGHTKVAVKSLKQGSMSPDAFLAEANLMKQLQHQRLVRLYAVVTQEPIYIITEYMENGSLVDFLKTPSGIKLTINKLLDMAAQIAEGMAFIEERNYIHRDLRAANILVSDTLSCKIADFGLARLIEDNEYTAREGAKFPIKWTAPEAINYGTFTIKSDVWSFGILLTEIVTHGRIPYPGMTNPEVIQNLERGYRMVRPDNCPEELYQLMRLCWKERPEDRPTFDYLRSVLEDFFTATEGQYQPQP
Chain of Mu-type opioid receptor (P35372 whole entry): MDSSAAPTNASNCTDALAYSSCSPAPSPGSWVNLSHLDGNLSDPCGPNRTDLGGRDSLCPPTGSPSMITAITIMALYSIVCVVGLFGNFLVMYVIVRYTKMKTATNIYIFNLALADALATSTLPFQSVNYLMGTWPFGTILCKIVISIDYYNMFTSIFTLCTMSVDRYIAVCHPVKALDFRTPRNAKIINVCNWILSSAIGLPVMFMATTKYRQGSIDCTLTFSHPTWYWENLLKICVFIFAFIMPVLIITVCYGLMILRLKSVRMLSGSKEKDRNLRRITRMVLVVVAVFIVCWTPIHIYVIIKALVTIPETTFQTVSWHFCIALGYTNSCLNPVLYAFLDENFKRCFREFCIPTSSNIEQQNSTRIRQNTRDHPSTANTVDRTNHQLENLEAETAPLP

By IC50 is commonly meant the concentration needed to halve the response being measured. Usually Ki stands for the dissociation constant of the complex between target and ligand, obtained from inhibition or displacement. Consider `CC[C@]1(O)CC[C@H]2[C@@H]3CCC4=CCCC[C@@H]4[C@H]3CC[C@@]21C`, for which the half-inhibitory concentration (IC50) result (in assay [1] (insect cells); at Mu-type opioid receptor (cho-k1); in assay [2]; in assay [3]; at Endothelin-1 receptor; at Neutrophil elastase) was “Not Active” in each case. The Ki result in assay [2] was “Not Active”.

Take `N[C@@H](Cc1ccc(F)cc1)C(=O)O`: the IC50 entry (in assay [1] (insect cells); at Mu-type opioid receptor (cho-k1); in assay [2]; in assay [3]; against Endothelin-1 receptor; on Neutrophil elastase) was “Not Active” each time. In addition, the Ki entry in assay [2] is “Not Active”.

`CCOC(=O)[C@H](CCc1ccccc1)N[C@@H](C)C(=O)N1CCC[C@H]1C(=O)O`: the IC50 result (in assay [1] (insect cells); on Mu-type opioid receptor (cho-k1); in assay [2]; in assay [3]; at Endothelin-1 receptor; at Neutrophil elastase) was “Not Active” each time. The Ki entry in assay [2] is recorded as “Not Active”.

In the case of `C=C1/C(=C\C=C2/CCC[C@]3(C)[C@@H]([C@H](C)CCCC(C)C)CC[C@@H]23)C[C@@H](O)C[C@@H]1O` [ALFACALCIDOL], the IC50 entry (in assay [1] (insect cells); on Mu-type opioid receptor (cho-k1); in assay [2]; in assay [3]; at Endothelin-1 receptor; on Neutrophil elastase) was “Not Active” in each case. Moreover, the inhibition constant (Ki) result in assay [2] is reported as “Not Active”.

As for `C[C@@H]1CC[C@H]2[C@@H](C)C(=O)O[C@@H]3O[C@@]4(C)CC[C@@H]1[C@]32OO4` [ARTEMISININ], the 50% inhibitory concentration (IC50) entry (in assay [1] (insect cells); at Mu-type opioid receptor (cho-k1); in assay [2]; in assay [3]; against Endothelin-1 receptor; against Neutrophil elastase) was “Not Active” in each case. Further, in assay [2], the inhibition constant Ki result is listed as “Not Active”.

On to `[N-]=[N+]=CC(=O)OC[C@H](N)C(=O)O` [AZASERINE], for which the half-maximal inhibitory concentration (IC50) result (in assay [1] (insect cells); on Mu-type opioid receptor (cho-k1); in assay [2]; in assay [3]; on Endothelin-1 receptor; at Neutrophil elastase) was “Not Active” throughout. For the same compound, in assay [2], the Ki result was “Not Active”.

Consider `CC(C)C[C@H]1C(=O)N2CCC[C@H]2[C@]2(O)O[C@](NC(=O)[C@@H]3C=C4c5cccc6[nH]c(Br)c(c56)C[C@H]4N(C)C3)(C(C)C)C(=O)N12` [BROMOCRIPTINE], for which the IC50 result is “Not Active” in assay [1] (insect cells); “Not Active” in assay [2]; 3.55 nM in assay [3] (read-out: IC50); “Not Active” against Endothelin-1 receptor; “Not Active” against Neutrophil elastase. The results for the inhibitory constant (Ki) result in assay [2] and in assay [3] (read-out: Ki) were “Not Active” and 1.96 nM, respectively.

Regarding `O=C(/C=C/c1ccc(O)c(O)c1)OCCc1ccccc1` [CAFFEIC ACID PHENETHYL ESTER], the IC50 in assay [1] (read-out: IC50) was 2890 nM; on Mu-type opioid receptor (cho-k1), “Not Active”; in assay [2], “Not Active”; in assay [3], “Not Active”; at Endothelin-1 receptor, “Not Active”; at Neutrophil elastase, “Not Active”. The inhibition constant Ki result in assay [2] was “Not Active”.

As for `Oc1ccccc1O` [CATECHOL], the IC50 entry (in assay [1] (insect cells); on Mu-type opioid receptor (cho-k1); in assay [2]; in assay [3]; against Endothelin-1 receptor; against Neutrophil elastase) was “Not Active” throughout. Also, the Ki result in assay [2] is “Not Active”.

As to `CN(C(=O)CCCOc1ccc2[nH]c(=O)ccc2c1)C1CCCCC1` [CILOSTAMIDE], the IC50 result (in assay [1] (insect cells); on Mu-type opioid receptor (cho-k1); in assay [2]; in assay [3]; on Endothelin-1 receptor; against Neutrophil elastase) was “Not Active” each time. The inhibition constant Ki entry in assay [2] is reported as “Not Active”.

For the compound `Nc1nc(Cl)nc2c1ncn2[C@H]1C[C@H](O)[C@@H](CO)O1` [CLADRIBINE], the half-maximal inhibitory concentration (IC50) result (in assay [1] (insect cells); on Mu-type opioid receptor (cho-k1); in assay [2]; in assay [3]; on Endothelin-1 receptor; against Neutrophil elastase) was “Not Active” each time. The Ki result in assay [2] is given as “Not Active”.

Regarding `CC(=O)O[C@]1(C(C)=O)CC[C@H]2[C@@H]3C=C(Cl)C4=CC(=O)[C@@H]5C[C@@H]5[C@]4(C)[C@H]3CC[C@@]21C` [CYPROTERONE ACETATE], the IC50 result in assay [1] (insect cells) is “Not Active”; at Mu-type opioid receptor (read-out: IC50), 2.18 µM; in assay [2] it was “Not Active”; in assay [3], “Not Active”; at Endothelin-1 receptor, “Not Active”; at Neutrophil elastase, “Not Active”. Moreover, the inhibition constant Ki at Mu-type opioid receptor is 0.886 µM; in assay [2], “Not Active”.

In the case of `Nc1nc(N)nc(NC2CC2)n1` [CYROMAZINE], the IC50 entry (in assay [1] (insect cells); in assay [2]; in assay [3]; on Endothelin-1 receptor; at Neutrophil elastase) was “Not Active” throughout. Moreover, the inhibitory constant (Ki) result in assay [2] is reported as “Not Active”.

`C#C[C@]1(O)CC[C@H]2[C@@H]3CCC4=Cc5oncc5C[C@]4(C)[C@H]3CC[C@@]21C` [DANAZOL]: the IC50 result in assay [1] (insect cells) is “Not Active”; on Mu-type opioid receptor (read-out: IC50), 14.1 µM; in assay [2] it was “Not Active”; in assay [3], “Not Active”; against Endothelin-1 receptor, “Not Active”; at Neutrophil elastase, “Not Active”. The figures for the Ki (at Mu-type opioid receptor; in assay [2]) were 5.72 µM and “Not Active”, respectively.

`CN1C(=O)CN=C(c2ccccc2)c2cc(Cl)ccc21` [DIAZEPAM]: the half-maximal inhibitory concentration (IC50) result (in assay [1] (insect cells); at Mu-type opioid receptor (cho-k1); in assay [2]; in assay [3]; at Endothelin-1 receptor; at Neutrophil elastase) was “Not Active” in each case. In addition, the inhibitory constant (Ki) entry in assay [2] is “Not Active”.

As to `Cc1c(N(C)CS(=O)(=O)[O-])c(=O)n(-c2ccccc2)n1C.[Na+]` [DIPYRONE SODIUM], the 50% inhibitory concentration (IC50) result (in assay [1] (insect cells); at Mu-type opioid receptor (cho-k1); in assay [2]; in assay [3]; on Endothelin-1 receptor; against Neutrophil elastase) was “Not Active” each time. Moreover, the Ki result in assay [2] is given as “Not Active”.

`C#C[C@]1(O)CC[C@H]2[C@@H]3CCc4cc(O)ccc4[C@H]3CC[C@@]21C` [ETHINYL ESTRADIOL]: the IC50 entry in assay [1] (insect cells) is “Not Active”; at Mu-type opioid receptor (read-out: IC50), 26.8 µM; in assay [2], “Not Active”; in assay [3], “Not Active”; on Endothelin-1 receptor, “Not Active”; against Neutrophil elastase, “Not Active”. Moreover, the Ki at Mu-type opioid receptor was 10.9 µM; in assay [2], “Not Active”.

As to `COc1ccccc1OCC(O)CO` (stereo unspecified) [GUAIFENESIN], the IC50 entry (in assay [1] (insect cells); at Mu-type opioid receptor (cho-k1); in assay [2]; in assay [3]; against Endothelin-1 receptor; at Neutrophil elastase) was “Not Active” throughout. In addition, in assay [2], the Ki entry was “Not Active”.

As for `C[C@]12CCC(=O)C=C1CC[C@@H]1[C@@H]2[C@@H](O)C[C@@]2(C)[C@H]1CC[C@]2(O)C(=O)CO` [HYDROCORTISONE], the IC50 entry (in assay [1] (insect cells); at Mu-type opioid receptor (cho-k1); in assay [2]; in assay [3]; at Endothelin-1 receptor; against Neutrophil elastase) was “Not Active” throughout. For the same compound, the Ki result in assay [2] was “Not Active”.

Consider `COc1ccc(Cc2nccc3cc(OC)c(OC)cc23)cc1OC` [PAPAVERINE], for which the half-inhibitory concentration (IC50) entry (in assay [1] (insect cells); in assay [2]; in assay [3]; against Endothelin-1 receptor; at Neutrophil elastase) was “Not Active” throughout. In assay [2], the Ki result is recorded as “Not Active”.
